Experiment [1] has as its target muscarinic receptors. In words: Radio ligand binding, displacement of muscarinic agonist 3H-Oxotremorine-M (3H-OXO-M). The arrangement: species or system rat (Hooded Lister). Conditions: displacement of 2 nM 3H-OXO-M, rat cerebral cortex homogenate, 37° C., 30 min, 2 mM magnesium chloride.
Experiment [2] has as its target muscarinic receptors. It counts as binding, rat (Hooded Lister). Conditions: displacement of 0.27 nM 3H-QNB, rat cerebral cortex homogenate, 37° C., 30 min.

Counter-ions that a name gives are not always drawn. Like-named read-outs stand apart in the source and are kept apart here.

Broadly, the IC50 is the point on the concentration scale where inhibition reaches its midpoint. For the compound `CON=CC12CCCN(CC1)C2` (mixture of isomers) [E 1, (±) syn-1-Azabicyclo[3,2,1]oct-5-ylcarboxaldehyde, O-methyloxime hydrochloride salt], the IC50 at muscarinic receptors [1] is 0.073 µM; at muscarinic receptors [2], 5.2 µM.
The corresponding values for `CON=C(C)C1CN2CCC1CC2` (mixture of isomers) [E 3, (±) trans-3-Acetyl-1-azabicyclo[2.2.21octane-O-methyloxime hydrochloride salt] are 0.069 µM and 2 µM.
The like results for `C#CCON=C(C)C1CN2CCC1C2` (mixture of isomers) [E 15, (±)exo-3-Acetyl-1-azabicyclo2.2.1]heptane-trans-O-proparqyloxime hydrochloride salt] were, in that order, 0.219 µM and 3.9 µM.
The corresponding values for `CCC(=NOC)C1CN2CCC1C2` (mixture of isomers) [E 16, (±)exo-3-Propan-1-one-1-azabicyclo2.2.11heptane-trans-O-methyloxime hydrochloride salt] are 0.204 µM and 3.4 µM.
Consider `CON=CC1CN2CCC1CC2` (racemic) [E 2, (±) 1-Azabicyclo[2.2.2]oct-3-ylcarboxaldehyde, O-methyloxime hydrochloride salt], for which the IC50 on muscarinic receptors [1] was 0.095 µM; at muscarinic receptors [2], 10 µM.
Turning to `CON=C(C)C12CCCN(CC1)C2` (racemic) [E 6, (±) trans-5-Acetyl-1-azabicyclo[3.2.1]octane-O-methyloxime hydrochloride salt], the IC50 on muscarinic receptors [1] turned out to be 0.046 µM; at muscarinic receptors [2], 4.4 µM.
As for `CON=C(C)C1CN2CCC1C2` (racemic) [E 13, (±)exo-3-Acetyl-1-azabicyclo[2.2.1]heptane-trans-O-methyloxime oxalate salt], the IC50 at muscarinic receptors [1] is 0.099 µM; on muscarinic receptors [2], 9 µM.
The corresponding values for `C#CCON=CC1CN2CCC1CC2` (racemic) [E 17, (±)1-Azabicyclo[2.2.21oct-3-ylcarboxaldehyde, O-proparqyloxime hydrochloride salt] are 0.19 µM and 2.45 µM.
The corresponding values for `CON=C(C)C1CC2CCN(C2)C1` (racemic) [E 24, (±)exo-3-Acetyl-1-azabicyclo[3.2.1]octane-trans-O-methyloxime hydrochloride salt] are 0.32 µM and 7.3 µM.
The like results for `CON=C[C@@H]1CN2CC[C@@H]1C2` (relative stereo) [E 7, (±) exo-1-Azabicyclo[2.2.1]hept-3-ylcarboxaldehyde, O-methyloxime oxalate salt] were, in that order, 0.014 µM and 4.8 µM.
Consider `CCON=C[C@@H]1CN2CC[C@@H]1C2` (relative stereo) [E 8, (±) exo-1-Azabicyclo[2.2.1]hept-3-ylcarboxaldehyde, O-ethyloxime oxalate salt], for which the IC50 is 0.16 µM on muscarinic receptors [1] and 5.6 µM on muscarinic receptors [2].
The corresponding values for `C#CCON=C[C@@H]1CN2CC[C@@H]1C2` (relative stereo) [E 9, (±) exo-1-Azabicyclo[2.2.11hept-3-ylcarboxaldehyde, O-proparqyloxime oxalate salt] are 0.024 µM and 2.7 µM.
For the compound `C=CCON=C[C@@H]1CN2CC[C@@H]1C2` (relative stereo) [E 22, (±)exo-1-Azabicyclo2.2.1]hept-3-ylcarboxaldehyde, O-allyloxime oxalate salt], the IC50 at muscarinic receptors [1] worked out at 0.215 µM; at muscarinic receptors [2], 8.5 µM.
The like results for `CON=C[C@H]1C[C@@H]2CCN(C1)C2` (relative stereo) [E 23, (±)exo-1-Azabicyclo[3.2.11oct-3-ylcarboxaldehyde, O-methyloxime hydrochloride salt] were, in that order, 0.24 µM and 5.57 µM.
For `CON=CC12CCN(CC1)C2` [E 19, syn-1-Azabicyclo[2.2.1]hept-4-ylcarboxaldehyde, O-methyloxime hydrochloride salt], the IC50 on muscarinic receptors [1] amounted to 0.118 µM; at muscarinic receptors [2], 40 µM.
The like results for `CON=C(C)C12CCN(CC1)C2` [E 20, 4-Acetyl-1-azabicyclo[2.2.1]heptane-O-methyloxime oxalate salt] were, in that order, 0.055 µM and 12.5 µM.
The corresponding values for `C#CCON=CC12CCN(CC1)C2` [E 21, syn-1-Azabicyclo[2.2.11hect-4-ylcarboxaldehyde, O-proparqyloxime oxalate salt] are 0.352 µM and 21 µM.

The values are drawn from patent publication US5110828A (priority 1988, dated 1992).
